Assay results from patent publication US20040063703A1, “Synergistic pesticide mixtures for the control of animal pests” (priority 2001, published 2004).

Experiments:
[1] = test system: larvae of the mustard beetle (Phaedon cochleariae); experiment: Phaedon larvae test (kill rate, Colby); type: in vivo; settings: cabbage leaf dip
Description: (§1) The kill rates determined are calculated using Colby's formula (see sheet 1).

[2] = test system: normally sensitive caterpillars of the diamondback moth (Plutella xylostella); experiment: Plutella test (normally sensitive) (kill rate, Colby); type: in vivo; settings: normally sensitive strain
Description: Plutella Test (Normally Sensitive)
as §1

[3] = test system: resistant caterpillars of the diamondback moth (Plutella xylostella); experiment: Plutella test (resistant) (kill rate, Colby); type: in vivo; settings: resistant strain
Description: Plutella Test (Resistant)
as §1

[4] = test system: caterpillars of the diamondback moth (Plutella xylostella, sensitive strain); experiment: Plutella test, sensitive strain (LC95, Carpenter); type: in vivo; settings: found
Source text: Plutella Test, Sensitive Strain

[5] = test system: caterpillars of the diamondback moth (Plutella xylostella, resistant strain); experiment: Plutella test, resistant strain (LC95, Carpenter); type: in vivo; settings: found
Source text: Plutella Test, Resistant Strain

[6] = test system: caterpillars of the armyworm (Spodoptera frugiperda); experiment: Spodoptera frugiperda test (LC50, Carpenter); type: in vivo; settings: found, cabbage leaf dip
Source text: (§2) Spodoptera frugiperda Test

[7] = test system: larvae of the mustard beetle (Phaedon cochleariae); experiment: Phaedon larvae test (LC50, Carpenter); settings: found, cabbage leaf dip
[8] = test system: caterpillars of the armyworm (Spodoptera frugiperda); experiment: Spodoptera frugiperda test (kill rate, Colby); type: in vivo; settings: cabbage leaf dip
Description: as §2, §1

[9] = test system: Heliothis virescens caterpillars; experiment: Heliothis virescens test (kill rate, Colby); type: in vivo; settings: soya bean shoot dip
Description: as §1

## N#C/N=C1\SCCN1Cc1ccc(Cl)nc1 [thiacloprid, (Z)-3-(6-chloro-3-pyridylmethyl)-1,3-thiazolidin-2-ylidenecyanamide]
[1]; 3 ppm
  Kill rate in % after 6 days: 0%
[2]; 3 ppm
  Kill rate in % after 6 days: 0%
[3]; 3 ppm
  Kill rate in % after 6 days: 0%

## CN/C(=N\[N+](=O)[O-])NCc1cnc(Cl)s1 [clothianidin (X), (E)-1-(2-chloro-1,3-thiazol-5-yl-methyl)-3-methyl-2-nitroguanidine]
[4]
  LC95 after 6 days: 26.037 ppm
[5]
  LC95 after 6 days: 50.722 ppm
[6]
  LC50 after 6 days: 0.662 ppm
[7]
  LC50 after 6 days: 2.372 ppm

## COC(=O)N(C(=O)N1CO[C@@]2(C(=O)OC)Cc3cc(Cl)ccc3C2=N1)c1ccc(OC(F)(F)F)cc1 [indoxacarb]
[1]; 0.5 ppm
  Kill rate in % after 3 days: 20%
  Kill rate in % after 6 days: 45%
[2]; 0.1 ppm
  Kill rate in % after 6 days: 65%
[3]; 0.1 ppm
  Kill rate in % after 6 days: 55%
[8]; 0.02 ppm
  Kill rate in % after 6 days: 0%
[9]; 0.1 ppm
  Kill rate in % after 3 days: 0%
[4]
  LC95 after 6 days: 0.531 ppm
[5]
  LC95 after 6 days: 0.234 ppm
[6]
  LC50 after 6 days: 0.136 ppm
[7]
  LC50 after 6 days: 0.1 ppm

## O=[N+]([O-])/N=C1\NCCN1Cc1ccc(Cl)nc1 [imidacloprid, 1-[(6-chloro-3-pyridinyl)methyl]-N-nitro-2-imidazolidineimine]
[1]; 3 ppm
  Kill rate in % after 3 days: 0%
[8]; 0.6 ppm
  Kill rate in % after 6 days: 0%
[9]; 3 ppm
  Kill rate in % after 3 days: 15%
